Source: patent US20110245249A1, “Heterocyclically Substituted Anilinopyrimidines” (Bayer CropScience AG, priority 2008, published 2011)

How the values were obtained:
[1] = tested on: Fusarium proliferatum; test: Growth of Fusarium proliferatum (OD620) in the fumonisin test; type: cell-based; conditions: for pI50 growth: OD620 at the beginning and after 6 days; for IC50: Fusarium proliferatum, 144 h, read-out: pI50 growth
[2] = logP by HPLC on reversed-phase columns (EEC Directive 79/831 Annex V.A8); type: physicochemical
Procedure, shortened: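 Reversed-phase C18 HPLC per EEC Directive 79/831 Annex V.A8, 10→95% acetonitrile linear gradient. Acidic runs: pH 2.3 with 0.1% aqueous phosphoric acid (HPLC), or pH 2.7 LC-MS with 0.1% formic acid in both phases. Neutral LC-MS at pH 7.8 using 0.001 molar aqueous ammonium bicarbonate.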

[3] = tested on: Production of Fumonisin FB1 by Fusarium proliferatum; test: Production of Fumonisin FB1 by Fusarium proliferatum; type: cell-based; conditions: FB1 in liquid medium after 6 days at 20° C., HPLC-MS/MS; for IC50: Fusarium proliferatum, 144 h, read-out: pI50 Fum (converted)

| Molecule | log p [b] ([2]; pH 2.7) | log p [c] ([2]; pH 7.8) | other results |
| --- | --- | --- | --- |
| FC(F)(F)c1cnc(Nc2cccc(C3OCCO3)c2)nc1NC1CCC1 [Example 22] | 3.06 | 3.57 | pI50 growth [1]: 5.5 |
| FC(F)(F)c1cnc(Nc2cccc(C3OCCO3)c2)nc1NC1CC1 [Example 24] | 3.7 | 3.02 | pI50 Fum [3]: 6; pI50 growth [1]: 5.5 |
| CN(c1nc(Nc2cccc(C3OCCO3)c2)ncc1Cl)C1CC1 [Example 23] | 2.52 | 3.45 | pI50 growth [1]: 4.9 |
| CC1(c2ccc(Nc3ncc(Cl)c(NC4CC4)n3)cc2)OCCO1 [Example 27, 5-Chloro-N^4-cyclopropyl-N^2-[4-(2-methyl-1,3-dioxolan-2-yl)phenyl]pyrimidine-2,4-diamine] | – | – | IC50 [3]: 0.398 µM; IC50 [1]: 1 µM; chromatographic logP ([2]; pH 2.7, log p [b]): 1.84; chromatographic logP ([2]; pH 2.7, logP (pH 2.7)): 1.84; chromatographic logP ([2]; pH 7.8, log p [c]): 2.99 |
| CC1(c2cccc(Nc3ncc(Cl)c(NC4CC4)n3)c2)OCCCO1 [Example 6] | – | – | pI50 growth [1]: 5.5 |
| Clc1cnc(Nc2cccc(C3OCCCO3)c2)nc1NC1CC1 [Example 5, 5-Chloro-N^4-cyclopropyl-N^2-[3-(1,3-dioxan-2-yl)phenyl]pyrimidine-2,4-diamine] | – | – | IC50 [3]: 0.251 µM; IC50 [1]: 0.794 µM; chromatographic logP ([2]; pH 2.7, log p [b]): 1.69; chromatographic logP ([2]; pH 2.7, logP (pH 2.7)): 1.69; chromatographic logP ([2]; pH 7.8, log p [c]): 2.83 |
| COCC1COC(c2cccc(Nc3ncc(Cl)c(NC4CC4)n3)c2)O1 (stereo not drawn) [Example 28] | 2.21 | 2.81 | pI50 Fum [3]: 6.5 |
| CC1OC(c2cccc(Nc3ncc(Br)c(NC4CC4)n3)c2)OC1C (stereo not drawn) [Example 14] | 2.31 | 3.5 | pI50 growth [1]: 5.5 |
| CC(C)(C)C1COC(c2cccc(Nc3ncc(Cl)c(NC4CC4)n3)c2)O1 (stereo not drawn) [Example 30] | – | 4.34[c] | pI50 Fum [3]: 6; pI50 growth [1]: 5.3 |
| CC1(C)COC(c2cccc(Nc3ncc(Br)c(NC4CC4)n3)c2)OC1 [Example 16] | 2.65 | 3.9 | pI50 Fum [3]: 6 |
| COCC1COC(c2cccc(Nc3ncc(Br)c(NC4CC4)n3)c2)O1 (stereo not drawn) [Example 104] | 1.9 | 3.02 | – |
| Fc1ccc(Nc2ncc(Br)c(NC3CCC3)n2)cc1C1OCCO1 [Example 142] | – | – | log p ([2]; pH 2.7): 2.22; log p ([2]; pH 7.8): 3.55 |
| CC1CCOC(c2cccc(Nc3ncc(Cl)c(NC4CC4)n3)c2)O1 (stereo not drawn) [Example 97] | 2 | 3.25 | – |
| CC1(C)COC(c2cccc(Nc3ncc(C(F)(F)F)c(NC4CC4)n3)c2)OC1 [Example 25] | 3.7 | 4.07 | – |
| FC(F)(F)c1cnc(Nc2ccc(C3OCCCO3)cc2)nc1NC1CC1 [Example 78] | 2.72 | 3.21 | – |
| CCC1COC(c2cccc(Nc3ncc(Br)c(NC4CCC4)n3)c2)O1 (stereo not drawn) [Example 89] | 2.88 | 4.35 | – |
| Cc1cnc(Nc2cccc(C=O)c2)nc1NC1CC1 [3-{[4-(Cyclopropylamino)-5-methylpyrimidin-2-yl]amino}benzenecarbaldehyde] | – | – | chromatographic logP ([2]; pH 2.7, logP (pH 2.7)): 1.13 |
| Clc1cnc(Nc2cccc(C3OCCCS3)c2)nc1NC1CC1 (stereo not drawn) [Example 127] | 2.1 | 3.33 | – |

| Molecule | log p [b] ([2]; pH 2.7) | log p [c] ([2]; pH 7.8) | other results |
| --- | --- | --- | --- |
| CC1(C)CCOC(c2cccc(Nc3ncc(Cl)c(NC4CC4)n3)c2)O1 (stereo not drawn) [Example 100] | 2.22 | 3.57 | – |
| OCC1CSC(c2cccc(Nc3ncc(Br)c(NC4CC4)n3)c2)S1 (stereo not drawn) [Example 166] | – | – | log p ([2]; pH 2.7): 1.89; log p ([2]; pH 7.8): 2.85 |
| FC(F)CNc1nc(Nc2cccc(C3OCCO3)c2)ncc1Cl [Example 60] | 1.88[b] | 2.55 | log p [a] ([2]; pH 2.3): 1.49 |
| Clc1cnc(Nc2cccc(C3OCC(CBr)O3)c2)nc1NC1CC1 (stereo not drawn) [Example 156] | – | – | log p ([2]; pH 2.7): 2.39; log p ([2]; pH 7.8): 3.48 |
| CC(=O)c1cccc(Nc2ncc(C(F)(F)F)c(NC3CC3)n2)c1 [1-(3-{[4-(Cyclopropylamino)-5-(trifluoromethyl)pyrimidin-2-yl]amino}phenyl)ethanone] | – | – | chromatographic logP ([2]; pH 2.7, logP (pH 2.7)): 2.72 |
| CC1COC(c2cccc(Nc3ncc(Cl)c(NC4CCC4)n3)c2)O1 (stereo not drawn) [Example 86] | 2.2 | 3.68 | – |
| Clc1cnc(Nc2cccc(C3OCCCO3)c2)nc1NCC1CC1 [Example 152] | – | – | log p ([2]; pH 2.7): 1.87[b] |
| CCC1COC(c2cccc(Nc3ncc(C(F)(F)F)c(NC4CC4)n3)c2)O1 (stereo not drawn) [Example 88] | 3.48 | 3.9 | – |
| CC(C)Nc1nc(Nc2cccc(C=O)c2)ncc1Cl [3-{[5-Chloro-4-(isopropylamino)pyrimidin-2-yl]amino}benzaldehyde] | – | – | chromatographic logP ([2]; pH 2.7, logP (pH 2.7)): 1.86 |
| CC1COC(c2cccc(Nc3ncc(Br)c(NC4CCC4)n3)c2)O1 (stereo not drawn) [Example 85] | 2.39 | 3.84 | – |
| CC(C)(C)C1CCOC(c2cccc(Nc3ncc(C(F)(F)F)c(NC4CC4)n3)c2)O1 (stereo not drawn) [Example 122] | 4.44 | 4.82 | – |
| CC1COC(c2cccc(Nc3ncc(Cl)c(NC4CC4)n3)c2)OC1 (stereo not drawn) [Example 101] | 2.1 | 3.35 | – |
| Brc1cnc(Nc2cccc(C3OC4COCC4O3)c2)nc1NC1CC1 (stereo not drawn) [Example 110] | – | 2.66[c] | – |
| CC1(C)CC(C)(C)OC(c2cccc(Nc3ncc(Cl)c(NC4CC4)n3)c2)O1 [Example 102] | 2.86 | 4.32 | – |
| O=Cc1cccc(Nc2ncc(Cl)c(NCC(F)F)n2)c1 [3-({5-Chloro-4-[(2,2-difluoroethyl)amino]pyrimidin-2-yl}amino)benzenecarbaldehyde] | – | – | chromatographic logP ([2]; pH 2.7, logP (pH 2.7)): 2.01 |
| 2-Chloro-{[5-chloro-4-(cyclopropylamino)pyrimidin-2-yl]amino}benzenecarbaldehyde | – | – | logP (pH 2.7) ([2]; pH 2.7, LC-MS, 0.1% aqueous formic acid/acetonitrile): 2.68 |
| CC1(c2cccc(Nc3ncc(C(F)(F)F)c(NC4CC4)n3)c2)OCCCO1 [Example 48] | 3.29 | 3.64 | – |
| CC(=O)c1cccc(Nc2ncc(C(F)(F)F)c(NCC3CC3)n2)c1 [1-[3-({4-[(Cyclopropylmethyl)amino]-5-(trifluoromethyl)pyrimidin-2-yl}amino)phenyl]-ethanone] | – | – | chromatographic logP ([2]; pH 2.7, logP (pH 2.7)): 2.77 |
